According to PMC6151511, “Rational Design of Nucleoside–Bile Acid Conjugates Incorporating a Triazole Moiety for Anticancer Evaluation and SAR Exploration” (Molecules : A Journal of Synthetic Chemistry and Natural …, 2017):
Where two headings read alike, the source gives them in different places.

Experiments:
[1] = test system: HCT116 colon carcinoma; set-up: method as in doi:10.1039/c3nj00513e; conditions: MTT; ref [6]; cited from earlier work
[2] = test system: Normal human skin fibroblast cells; set-up: method as in doi:10.1039/c3nj00513e; conditions: MTT; ref [6]; read-out: IC50 FIBRO; cited from earlier work
[3] = test system: K562 leukemia cells; set-up: method as in doi:10.1039/c3nj00513e; conditions: MTT; ref [6]; cited from earlier work
[4] = test system: K562 leukemia cells; test: MTT assay, cell growth inhibition of K562 leukemia cells; type: cell-based; conditions: MTT, 72 h incubation, mean of three independent experiments ± SD, IC50 > 50 means inhibition <20% at 50 μM, read-out: IC50 K562
Protocol: (§1) All conjugated compounds prepared via click chemistry and listed in Table 1 were evaluated in vitro for their cytotoxic activity against K562 leukemia cells and the colon cancer cell line HCT116. Normal human skin fibroblast cells were chosen as a control and cisplatin served as a reference compound. The cytotoxicity was evaluated using the MTT assay (details are reported in the Materials and Methods section). In all experiments the cell growth inhibition of K562 and HCT116 was determined for each compound at concentrations of 10, 25 and 50 μM after 72 h of treatment and up to 100 μM in the case of fibroblasts.
(§2) Cell growth inhibition assays were carried out using the leukemia cell line K562 and colon carcinoma HCT116. Cell lines were obtained from ATCC (Manassas, VA, USA) and maintained in RPMI 1640, supplemented with 10% fetal bovine serum (FBS), penicillin (100 Units mL^−1), streptomycin (100 μg mL^−1) and glutamine (2 mM) (complete medium); the pH of the medium was 7.2 and the incubation was performed at 37 °C in a 5% CO2 atmosphere. Adherent cells were routinely used at 70% of confluence and passaged every 3 days by treatment with 0.05% Trypsin-EDTA (Lonza, Walkersville, MD, USA). K562 cells were routinely fed every 3 days.
(§3) The antiproliferative activity of the compounds was tested using the 3-(4,5-dimethylthiozol-2-yl)2,5-diphenyltetrazolium bromide solution (MTT) assay. K562 and HCT116 were seeded in triplicate in 96-well trays respectively at the density of 5 × 10^3 and 10^4 in 50 μL of complete medium. Stock solutions (50 mM) of each compound were made in DMSO and diluted in complete medium to give final concentrations of 50, 25 and 10 μM. Untreated cells were placed in every plate as a negative control. The cells were exposed to the compounds, in 100 μL total volume, for 72 h.

[5] = test system: Normal human skin fibroblast cells; test: MTT assay, cytotoxicity on normal fibroblasts (control); type: cell-based; conditions: MTT, 72 h incubation, up to 100 μM, mean of three independent experiments ± SD, IC50 > 100 means inhibition <10% at 100 μM, read-out: IC50 FIBRO
Protocol: as §1, §3

[6] = test system: HCT116 colon carcinoma; test: MTT assay, cell growth inhibition of HCT116 colon carcinoma; type: cell-based; conditions: MTT, 72 h incubation, mean of three independent experiments ± SD, IC50 > 50 means inhibition <20% at 50 μM
Protocol: as §1, §2, §3

[7] = test system: K562 cells; test: Annexin V-FITC/PI apoptosis assay by flow cytometry; type: cell-based; conditions: 25 and 50 μM, 24 h
Protocol: In this study we also tested in vitro the nucleoside-alkyne derivatives (namely ALK-A, ALK-G, ALK-dG and ALK-dU) and the N3-BA building blocks (namely 3α-N3-CDC, 3α-N3-UDC, 3α-N3-TUDCA, 23-N3-nor-CDC and 23-N3-nor-UDC). […] (Table 1). To determine whether the antiproliferative activity induced by dA-nor-CDC was related to apoptosis, as previously reported for the corresponding dA-CDC conjugate, K562 cells were treated with compound dA-nor-CDC (25 and 50 μM) for 24 h, then assayed by flow cytometry analysis with Annexin V-FITC staining.
The percentage of apoptotic cells was assessed using the Annexin V assay (Clontech Laboratories, Inc. A Takara Bio Company, Mountain View, CA, USA). Propidium iodide (PI) was used to avoid necrotic cell detection (Annexin−/PI+). The drug-induced apoptotic rate (Annexin+/PI− and Annexin V+/PI+) was compared with the apoptosis in the absence of the drugs used as control (spontaneous apoptosis). K562 cells were cultured in RPMI + 10% FBS in a 6-weels plate for 24 h in the presence of compounds dA-nor-CDC at concentration of 50 and 25 μM. […] Incubation with annexin V for 15 min on ice in dark was directly followed by flow cytometric analysis of the cells with a FACScan (Becton Dickinson, San Jose, CA, USA) at 488 nm and quantified using the Cell Quest Pro software (Becton Dickinson).

[8] = Homo sapiens, Skin fibroblast, 72 h

Compound | IC50 [1] [µM] | IC50 [2] [µM] | IC50 [3] [µM] | IC50 ([4]; Homo sapiens, K562, 72 h) [µM] | IC50 [4] [µM] | IC50 [5, 8] [µM] | IC50 [5] [µM] | IC50 ([6]; Homo sapiens, HCT-116, 72 h) [µM] | IC50 [6] [µM] | induction of apoptosis (in words) [7]
C#CCCCCC#Cc1nc2c(N)ncnc2n1[C@H]1C[C@H](O)[C@@H](CO)O1 [ALK-dA, 8-(1,7-Octadynyl)-2′-deoxyadenosine] | > 50 | > 100 | > 50 |  |  |  |  |  |  | 
COC(=O)CCC(C)[C@H]1CCC2C3C(CC[C@@]21C)[C@@]1(C)CC[C@@H](n2cc(CCCCC#Cc4nc5c(N)ncnc5n4[C@H]4C[C@H](O)[C@@H](CO)O4)nn2)CC1C[C@H]3O (some centres unmarked) [dA-CDC] | > 200 | > 200 | 8.5 ± 4 |  |  |  |  |  |  | 
COC(=O)CCC(C)[C@H]1CCC2C3C(CC[C@@]21C)[C@@]1(C)CC[C@@H](n2cc(CCCCC#Cc4nc5c(N)ncnc5n4[C@H]4C[C@H](O)[C@@H](CO)O4)nn2)CC1C[C@@H]3O (some centres unmarked) [dA-UDC] | > 200 | > 200 | > 100 |  |  |  |  |  |  | 
CC(CCn1cc(CCCCC#Cc2nc3c(N)ncnc3n2[C@H]2C[C@H](O)[C@@H](CO)O2)nn1)[C@H]1CCC2C3C(CC[C@@]21C)[C@@]1(C)CC[C@@H](O)CC1C[C@H]3O (some centres unmarked) [dA-nor-CDC] |  |  |  | ≤ 25 | 16.2 ± 2.2 | ~100 | 91.5 ± 3.5 | ≤ 25 | 17 ± 2.5 | induced apoptosis in a dose dependent manner
COC(=O)CCC(C)[C@H]1CCC2C3C(CC[C@@]21C)[C@@]1(C)CC[C@@H](n2cc(CCCCC#Cc4cn([C@H]5C[C@H](O)[C@@H](CO)O5)c(=O)[nH]c4=O)nn2)CC1C[C@@H]3O (some centres unmarked) [dU-UDC] |  |  |  | ≤ 25 | 21.5 ± 2 | ~100 | 91.5 ± 4.5 | ≤ 25 | 23.5 ± 1.6 | 
CC(CCn1cc(CCCCC#Cc2cn([C@H]3C[C@H](O)[C@@H](CO)O3)c(=O)[nH]c2=O)nn1)[C@H]1CCC2C3C(CC[C@@]21C)[C@@]1(C)CC[C@@H](O)CC1C[C@H]3O (some centres unmarked) [dU-nor-CDC] |  |  |  | 42.9 ± 1.9 |  | > 100 |  | > 50 |  | 
CC(CCn1cc(CCCCC#Cc2cn([C@H]3C[C@H](O)[C@@H](CO)O3)c(=O)[nH]c2=O)nn1)[C@H]1CCC2C3C(CC[C@@]21C)[C@@]1(C)CC[C@@H](O)CC1C[C@@H]3O (some centres unmarked) [dU-nor-UDC] |  |  |  | ≤ 25 | 24.8 ± 1.5 | > 100 |  | 43 ± 3.5 |  | 
